In PubChem BioAssay (NCI) one finds GI50 and TGI data, which are given here for seven molecules.

Each structure is given as a SMILES string. Values joined by “and” are separate entries in the source; they are usually repeats but may differ in a detail not shown here. Equal values may be shown once.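 Following 48 hours of exposure in 96-well plates, responses at five concentrations were used to interpolate endpoints linearly. At the GI50, growth is halved. TGI is the concentration that stops growth completely.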 Some results are limits rather than exact numbers.

Test systems include CAKI-1 renal; HCC-2998 colon; HCT-15 colon; IGROV1 ovarian; MALME-3M melanoma; MDA-MB-435; MOLT-4 leukemia; NCI-H522 lung; PC-3 prostate; SW-620 colon.
What all share (assay): NCI tumour cell line growth inhibition, 48 h

Consider `CCCCCCCCCCCCc1ccc(C(=O)/C=C/C(=O)O)cc1`, for which the GI50 with CAKI-1 renal is 1.76 µM; in the assay with HCC-2998 colon, 5.45 µM; in the assay with HCT-15 colon, 1.71 µM; in the assay with IGROV1 ovarian, 1.95 µM; in the assay on MALME-3M melanoma, 1.82 µM; in the assay with MDA-MB-435 it was 3.05 µM. Besides, the GI50 in the assay with MOLT-4 leukemia was 0.99 µM; in the assay with NCI-H522 lung, 1.98 µM; in the assay with PC-3 prostate, 8.12 µM; with SW-620 colon, 1.43 µM. Further, the TGI in the assay with CAKI-1 renal was found to be 3.58 µM; in the assay with HCC-2998 colon, 17.7 µM; in the assay with HCT-15 colon, 3.45 µM; in the assay with IGROV1 ovarian, 3.86 µM; in the assay on MALME-3M melanoma, 3.6 µM; in the assay with MDA-MB-435, 11.2 µM. The TGI in the assay with MOLT-4 leukemia was found to be 5.11 µM; in the assay on NCI-H522 lung, 4.73 µM; in the assay on PC-3 prostate it was 26.6 µM; in the assay with SW-620 colon, 3.67 µM.
As for `COc1ccc(-c2cc(-c3ccc(Nc4nc(Nc5ccc(Cl)cc5)nc(Nc5ccc(Cl)cc5)n4)cc3)nc(N)c2C#N)cc1`, the GI50 with CAKI-1 renal was 1.47 µM; in the assay on HCC-2998 colon, 1.85 µM; with HCT-15 colon, 1.54 µM; in the assay on IGROV1 ovarian it was 2.25 µM; with MALME-3M melanoma it was 1.73 µM; in the assay on MDA-MB-435 it was 2.22 µM. Further, the GI50 was 0.702 µM in the assay on MOLT-4 leukemia, 1.75 µM with NCI-H522 lung, 0.982 µM in the assay with PC-3 prostate and 0.666 µM in the assay with SW-620 colon. Further, the TGI was determined as 4.38 µM with CAKI-1 renal; 4.55 µM in the assay on HCC-2998 colon; 5.24 µM in the assay on HCT-15 colon; 5.88 µM in the assay on IGROV1 ovarian; 3.49 µM in the assay on MALME-3M melanoma; 7.53 µM in the assay on MDA-MB-435. For the same molecule, the TGI worked out at 3.56 µM with MOLT-4 leukemia, 5.53 µM in the assay with NCI-H522 lung and 1.37 µM in the assay with SW-620 colon.
On to `O=C1c2cc3c(cc2-c2c1c1cc(Cl)c(Cl)cc1c(=O)n2CCCn1ccnc1)OCO3`, for which the GI50 with CAKI-1 renal is under 0.01 µM; in the assay with HCC-2998 colon it was 0.0538 µM; in the assay with HCT-15 colon it was 0.0257 µM; in the assay with IGROV1 ovarian, 0.0295 µM; with MALME-3M melanoma, 0.0232 µM; with MDA-MB-435, 0.0162 µM. The GI50 in the assay with MOLT-4 leukemia was under 0.01 µM; with NCI-H522 lung it was under 0.01 µM; in the assay on PC-3 prostate, 0.0171 µM; in the assay on SW-620 colon, under 0.01 µM. For the same molecule, the TGI in the assay with CAKI-1 renal is over 100 µM; in the assay with HCC-2998 colon it was over 100 µM; in the assay with HCT-15 colon, over 100 µM; with IGROV1 ovarian, over 100 µM; in the assay with MALME-3M melanoma, 17 µM; with MDA-MB-435 it was over 100 µM. For the same molecule, the TGI in the assay on MOLT-4 leukemia was 10.9 µM; in the assay with NCI-H522 lung, 0.835 µM; with PC-3 prostate it was over 100 µM; in the assay with SW-620 colon, over 100 µM.
For the molecule `COC(=O)c1cnc(=O)n(C2CC(O)C(CO)O2)c1` (centres undefined), the GI50 with CAKI-1 renal, in the assay on HCC-2998 colon, with HCT-15 colon, with IGROV1 ovarian, in the assay with MALME-3M melanoma and in the assay on MDA-MB-435 was over 100 µM throughout. The GI50 in the assay on MOLT-4 leukemia was over 100 µM; in the assay on NCI-H522 lung, over 100 µM; with PC-3 prostate, 0.811 µM; in the assay on SW-620 colon, over 100 µM. Moreover, the TGI with CAKI-1 renal, with HCC-2998 colon, with HCT-15 colon, in the assay with IGROV1 ovarian, in the assay on MALME-3M melanoma and with MDA-MB-435 was over 100 µM throughout. Moreover, the TGI with MOLT-4 leukemia, in the assay with NCI-H522 lung, with PC-3 prostate and with SW-620 colon was over 100 µM throughout.
For `COc1cc(-c2cc(C(=O)N3CCN(C(=O)c4ccccc4NCc4ccco4)CC3)nc3cc(-c4ccccc4)nn23)cc(OC)c1OC`, the GI50 was 1.34 µM with CAKI-1 renal; 7.56 µM in the assay on HCC-2998 colon; 3.4 µM in the assay on HCT-15 colon; 5.44 µM in the assay with IGROV1 ovarian; 7.58 µM in the assay with MALME-3M melanoma; 0.309 µM in the assay with MDA-MB-435. In addition, the GI50 with MOLT-4 leukemia is 11.2 µM; in the assay with NCI-H522 lung it was 0.859 µM; in the assay on PC-3 prostate it was 2.2 µM; in the assay on SW-620 colon it was 2.62 µM. Moreover, the TGI is over 100 µM in the assay on CAKI-1 renal; over 100 µM with HCC-2998 colon; over 100 µM in the assay with HCT-15 colon; over 100 µM with IGROV1 ovarian; over 100 µM with MALME-3M melanoma; 1.61 µM in the assay on MDA-MB-435. The TGI was over 100 µM with MOLT-4 leukemia, over 26.5 µM in the assay with NCI-H522 lung, over 100 µM with PC-3 prostate and over 100 µM with SW-620 colon.
Turning to `CC1(C)CC(=O)C2=C(C1)NC(SSC1=C(C#N)C(c3ccccc3)C3=C(CC(C)(C)CC3=O)N1)=C(C#N)C2c1ccccc1` (centres undefined), the GI50 is 28.3 µg/mL in the assay with CAKI-1 renal; 27.8 µg/mL in the assay with HCC-2998 colon; 26.8 µg/mL in the assay with HCT-15 colon; 28.3 µg/mL in the assay with IGROV1 ovarian; 27.3 µg/mL in the assay with MALME-3M melanoma; 25.7 µg/mL in the assay on MDA-MB-435. Further, the GI50 in the assay with MOLT-4 leukemia is 37.7 µg/mL; with NCI-H522 lung it was 26.1 µg/mL; in the assay with PC-3 prostate, 26.1 µg/mL; in the assay on SW-620 colon, 28.6 µg/mL. In addition, the TGI in the assay on CAKI-1 renal is 49.4 µg/mL; with HCC-2998 colon, 52.6 µg/mL; in the assay on HCT-15 colon it was 48.8 µg/mL; in the assay on IGROV1 ovarian it was 50.1 µg/mL; in the assay on MALME-3M melanoma, 48.6 µg/mL; in the assay with MDA-MB-435, 49.9 µg/mL. The TGI in the assay with MOLT-4 leukemia stood at 104 µg/mL; in the assay on NCI-H522 lung it was 47.7 µg/mL; in the assay with PC-3 prostate, 47.5 µg/mL; with SW-620 colon, 51.8 µg/mL.
Regarding `COc1cc(CCc2cc(NC(=O)c3ccc(N4C[C@@H](C)N[C@@H](C)C4)cc3)n[nH]2)cc(OC)c1`, the GI50 was > 10 µM and 5.76 µM with CAKI-1 renal; > 10 µM and 6.77 µM with HCC-2998 colon; > 10 µM and 9.71 µM in the assay with HCT-15 colon; 2.93 µM and 4.59 µM with IGROV1 ovarian; 8.58 µM and 5.25 µM in the assay with MALME-3M melanoma; 6.15 µM and 3.48 µM in the assay on MDA-MB-435. In addition, the GI50 in the assay on MOLT-4 leukemia is 4.38 µM and 3.69 µM; in the assay on NCI-H522 lung, > 10 µM and 9.95 µM; with PC-3 prostate it was > 10 µM and 6.92 µM; in the assay with SW-620 colon it was 6.49 µM and 3.5 µM. Also, the TGI in the assay with CAKI-1 renal is > 10 µM and 21.8 µM; with HCC-2998 colon, > 10 µM and 19.5 µM; with HCT-15 colon, > 10 µM and 23.6 µM; in the assay on IGROV1 ovarian, > 10 µM and 19.8 µM; in the assay on MALME-3M melanoma, > 10 µM and 19.9 µM; with MDA-MB-435, > 10 µM and 14.2 µM. The TGI in the assay with MOLT-4 leukemia is > 10 µM and 13.2 µM; in the assay on NCI-H522 lung it was > 10 µM and 24.5 µM; with PC-3 prostate, > 10 µM and 23.9 µM; in the assay with SW-620 colon, > 10 µM and 15.6 µM.
